Data: patent US20050198896A1, “Novel vegetal reinforcing agent based on phytohormones for use in the cultivation of plants or agriculture, preferably in the cultivation of fruit or in wine growing” (priority 2002, published 2005)

Assays:
[1] = system: grapes; experiment: GA3 in grapes compared to treatment with ethephon; format: in vivo
Excerpt: (§1) According to a further embodiment of the invention, GA3 and/or GA4/7 is/are used during the blooming period in the cultivation of […] grapes, table grapes or of grapes for special purposes, to enhance quality and as a protective measure against botrytis disease, in an application concentration of 5 to 100, preferably 5 to 50, especially 10 to 20 ppm, based on a quantity of water of 300 to 500, preferably 350 to 450 l/ha.

[2] = system: botrytis disease; experiment: infestation of grapes with botrytis disease; format: in vivo; conditions: loosening-up of the grapes (lengthening of the stalks)
Excerpt: as §1, with “l/ha. […] By contrast to conventional treatment with fungicides this happens purely mechanically/morphologically since the greater length of the stalks prevents mutual pushing away of the grapes, and damage to the grapes is thereby avoided. Such damage results in the occurrence of nest-shaped focuses of rot.” for “l/ha.”

[3] = system: cherry crops; experiment: bursting of cherries after rainfall, exogenous application of ABA before rainfall; format: in vivo; conditions: variety Hedelfinger
Excerpt: In cherry crops it is an important problem that if it rains shortly before the harvest the cherries are capable of absorbing large quantities of water in their interior. This frequently causes them to burst so that they can no longer be utilized. Exogenous application of ABA in cherry crops before rainfall reduces the bursting of the variety Hedelfinger, for example, by up to 30%.

[4] = system: chrysanthemums; experiment: frost resistance, damaged flowers after frost; format: in vivo; conditions: application about 24 hours prior to the frost
Procedure: Just as astonishing is the effect that exogenous application of ABA leads to frost resistance in crops, e.g. pears and apples, of adornment plants and fruit crops which has been observed. Application about 24 hours prior to the frost reduced the number of damaged flowers in chrysanthemums by 48%.

[5] = system: vine; experiment: quality enhancement in wine growing with ABA; format: in vivo; conditions: applied for several weeks prior to harvest
Excerpt: ABA can also be used for quality enhancement in wine growing. […] This leads to a higher density of the wine and thereby to wines with improved storage stability. Analogous effects occur in pears and apples.

[6] = system: apples and pears; experiment: leaf abortion in apples and pears; format: in vivo
Excerpt: This makes a further treatment with a fungicide unnecessary.

[7] = system: trees in fruit crops; experiment: renewed burgeoning following rain after a prolonged period of dryness; format: in vivo, trees in fruit crops; potatoes; conditions: also observed in potatoes
Excerpt: It has furthermore been observed that trees in fruit crops following rain after a prolonged period of dryness burgeon again. This has a negative influence on the quality of the fruit. […] This effect has also been observed in potatoes.

[8] = system: sugar-beets; experiment: sugar transport from the leaves into the beet body; format: in vivo; conditions: about 2 to 3 weeks before harvest; same effect in potatoes, red beet and carrots
Excerpt: A further surprising inventive feature of the phytohormonal properties of ABA is the effect of promoting the protein and sugar transport in the plants from the leaves into the root(s). […] The same effect is observed in potatoes, red beet and carrots. The increase in sugar content leads to a substantial quality improvement of the harvested produce.

[9] = system: firs and spruces; experiment: stress-susceptibility and needle retention of Christmas trees; format: in vivo

| Structure (SMILES) | density of the wine, colour and wine quality [1] | grape weight [1] | mean grape diameter [1] | infestation with botrytis disease [2] | reduction of the bursting of cherries [3] | reduction of the number of damaged flowers [4] [%] | increase in sugar content of the grapes [5] | reduction of the size of the grapes [5] | leaf abortion [6] | renewed burgeoning of the plants [7] | transport of leaf sugar into the body of the beet [8] | needle retention ([9]; compared with untreated trees) | stress-susceptibility ([9]; firs and spruces harvested as Christmas trees) |
| --- | --- | --- | --- | --- | --- | --- | --- | --- | --- | --- | --- | --- | --- |
| C=C1C[C@]23C[C@@]1(O)CC[C@H]2[C@@]12C=C[C@H](O)[C@@](C)(C(=O)O1)[C@H]2[C@@H]3C(=O)O [GA3, gibberellin A3] | improved | no reduction in grape weight is observed | larger | reduction in infestation with botrytis disease |  |  |  |  |  |  |  |  |  |
| CC(C=C[C@@]1(O)C(C)=CC(=O)CC1(C)C)=CC(=O)O (stereo in doubt) [ABA, (S)-5-(1-hydroxy-2,6,6-trimethyl-4-oxo-2-cyclohexenyl)-3-methyl-cis/trans-2,4-pentadienoic acid] |  |  |  |  | up to 30% | 48 | comparable increase in sugar content | up to 10% | quick leaf abortion | prevents renewed burgeoning of the plants | the sugar present in the leaves is additionally transported into the body of the beet | keep their needles for much longer than untreated trees | reduction of stress-susceptibility |
